SMILES strings stand for the structures.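 Where inhibition never reached the appropriate level, the endpoint shown equals the highest concentration tested. Otherwise, values were interpolated linearly from a five-concentration, 48-hour dose response in 96-well plates. The concentration for 50% growth inhibition is given as GI50.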 Activity calls are given as the source filed them. Rule as the data show it: active = GI50 up to about 1.1 µM and inactive = higher. Non-standard residues stand in square brackets, D forms with d. Residues, ends and D or L forms follow the SMILES beside them. ξ: configuration not given here. Pentanoyl(2-O,4-OH,5-Cl) = O=C(O)C(O)CC(O)CCl; Ile(3ξ) = CCC(C)[C@H](N)C(=O)O; NMeV = CN[C@H](C(=O)O)C(C)C; NMeA = CN[C@@H](C)C(=O)O; βAla = NCCC(=O)O

This note sets out measurements from ChEMBL document CHEMBL1201862, “PubChem BioAssay data set” (2004).

What all share (experiment): growth of human tumour cells (NCI), 48 h
The test system of assay [1] is SN12C.
Assay [2] has as its system OVCAR-3.
Assay [3] relates to UACC-62.
Assay [4] relates to SR.
Assay [5] relates to HCT-116.
Assay [6] deals with SNB-75.
Assay [7] has as its system OVCAR-4.
In assay [8] the test system is HOP-62.
Assay [9] deals with SK-MEL-28.
Assay [10] relates to MDA-MB-231.
For assay [11], the system named is SK-OV-3.
Assay [12] concerns Malme-3M.
Assay [13] relates to MOLT-4.
Assay [14] deals with SK-MEL-5.
Assay [15] relates to HCC 2998.
Assay [16] has as its system RXF 393.

Turning to `CCC1OC2C(CC=C(C)C)=C3OC(C)(O)C(C)(CC)C(OC(C)=O)C3=C3OC(=O)C=C1C32` (configuration not stated), the GI50 in [1] was 20.4 µM (inactive); in assay [2], 37.8 µM (inactive); in assay [3] it was 18.8 µM (inactive); in assay [4] it was 31.8 µM (inactive); in assay [5] it was 25.7 µM (inactive); in [6], 23.6 µM (inactive). Besides, the GI50 in assay [7] was 32.4 µM (inactive); in [8], 23.6 µM (inactive); in assay [9], 24.7 µM (inactive); in [10], 19.8 µM (inactive); in [11] it was 33.6 µM (inactive); in [12] it was 21.4 µM (inactive). Besides, the GI50 was 22.7 µM (inactive) in assay [13], 20.4 µM (inactive) in [14] and 24 µM (inactive) in assay [15].
For the molecule `CC(=O)O[C@H]1C[C@@H](OC(C)=O)[C@@](C)(O)[C@@H]2[C@@H](OC(C)=O)[C@@]3(O)[C@H](/C=C(/CCl)[C@H]4O[C@H]4[C@@H](OC(C)=O)[C@@]12C)OC(=O)[C@@H]3C`, the GI50 in assay [1] is > 25 µM (inactive); in assay [2], > 25 µM (inactive); in [16], 19.8 µM (inactive); in assay [3] it was > 25 µM (inactive); in assay [5], > 25 µM (inactive); in assay [6] it was > 25 µM (inactive). Further, the GI50 was > 25 µM (inactive) in assay [7]; > 25 µM (inactive) in [8]; 17.4 µM (inactive) in assay [9]; > 25 µM (inactive) in [10]; > 25 µM (inactive) in assay [11]; > 25 µM (inactive) in [12]. Also, the GI50 in assay [13] is > 25 µM (inactive); in [14], 22.3 µM (inactive); in assay [15], > 25 µM (inactive).
Consider `O/N=C1\CSc2ccccc2C1`, for which the GI50 in assay [1] is > 100 µM (inactive); in assay [2] it was > 100 µM (inactive); in [16], 72.3 µM (inactive); in assay [3], > 100 µM (inactive); in assay [4], 94.4 µM (inactive); in assay [5] it was > 100 µM (inactive). The GI50 in [7], in assay [8], in assay [9], in assay [10], in assay [11] and in [12] was > 100 µM (inactive) in each case. In addition, the GI50 in assay [13], in assay [14] and in assay [15] was > 100 µM (inactive) each time.
On to `Cc1c(Cl)c(=O)oc2cc(OCC(=O)c3ccccc3)ccc12`, for which the GI50 in assay [1] was > 100 µM (inactive); in assay [2] it was > 100 µM (inactive); in [16], > 100 µM (inactive); in assay [3], > 100 µM (inactive); in [4] it was 2.7 µM (inactive); in assay [7], > 100 µM (inactive). Also, the GI50 was 31.3 µM (inactive) in assay [8]; > 100 µM (inactive) in assay [9]; 29.4 µM (inactive) in [10]; > 100 µM (inactive) in assay [11]; > 100 µM (inactive) in assay [12]; > 100 µM (inactive) in assay [13]. For the same molecule, the GI50 in assay [14] and in assay [15] was > 100 µM (inactive) each time.
Regarding `O=C(Nc1ccccc1)OCCN=C1c2ccccc2C(Br)C(Br)c2ccccc21` (configuration not stated), the GI50 in assay [1] was 11.1 µM (inactive); in assay [2], 6.12 µM (inactive); in [16], 3.93 µM (inactive); in assay [3], 11 µM (inactive); in [5], 3.88 µM (inactive); in [6] it was 13.3 µM (inactive). The GI50 is 5.38 µM (inactive) in assay [7]; 15.1 µM (inactive) in assay [8]; 9.06 µM (inactive) in assay [9]; 15.2 µM (inactive) in assay [10]; 15.7 µM (inactive) in assay [11]; 6.15 µM (inactive) in assay [12]. The GI50 in assay [13] is 2.01 µM (inactive); in assay [14] it was 12.3 µM (inactive); in assay [15], 14.8 µM (inactive).
With `N#CCCC(CCC#N)(CCC#N)NO`, the GI50 in assay [1] was > 100 µM (inactive); in assay [16], > 100 µM (inactive); in assay [3], > 100 µM (inactive); in assay [4], > 100 µM (inactive); in [5] it was > 100 µM (inactive); in [6], 73.8 µM (inactive). Also, the GI50 in assay [10], in [11], in assay [12] and in [14] was > 100 µM (inactive) in each case.
For the molecule `Cc1ccc(NC(=O)/C(=N/N(C)C)C(C2OC(=O)c3ccccc32)[N+](=O)[O-])cc1` (configuration not stated), the GI50 in assay [1], in assay [2], in [16], in [3], in assay [5] and in assay [6] was > 100 µM (inactive) throughout. Besides, the GI50 in [7], in assay [8], in assay [9], in assay [10], in assay [11] and in [13] was > 100 µM (inactive) in each case. The GI50 in assay [14] and in assay [15] was > 100 µM (inactive) in each case.
In the case of `C[C@]12CC/C(=N\O)C=C1CC[C@@H]1[C@@H]2CC[C@]2(C)C(=N/O)/C(=C/c3cccnc3)C[C@@H]12`, the GI50 in assay [1] is 12.2 µM (inactive); in assay [3] it was 3.3 µM (inactive); in assay [5], 17.5 µM (inactive); in [7] it was 18.1 µM (inactive); in assay [8], 18.7 µM (inactive); in [9], 16.9 µM (inactive). Also, the GI50 was 17.7 µM (inactive) in [10], 39.1 µM (inactive) in assay [11], 17.8 µM (inactive) in [12] and 0.546 µM (active) in assay [13].
In the case of `CC(=O)OC1(C)C=CC(=O)C=C1`, the GI50 in assay [1] is 62.7 µM (inactive); in assay [2], 51.8 µM (inactive); in assay [3] it was 17.1 µM (inactive); in [4], 32.7 µM (inactive); in assay [5], 80.2 µM (inactive); in [6], 84.1 µM (inactive). The GI50 in [7] is 53.5 µM (inactive); in assay [8], 27.1 µM (inactive); in assay [9], 23.6 µM (inactive); in assay [10], 24.2 µM (inactive); in assay [11], > 100 µM (inactive); in assay [13] it was 30.3 µM (inactive). Besides, the GI50 is 40.2 µM (inactive) in [14] and > 100 µM (inactive) in assay [15].
Regarding `CC(C)(C)C1=C(Br)C(Br)(C(C)(C)C)OP1(=O)c1ccccc1` (configuration not stated), the GI50 in assay [1], in assay [2], in [16], in assay [3], in [4] and in assay [5] was > 100 µM (inactive) throughout. Further, the GI50 in [6], in assay [7], in assay [8], in assay [9], in assay [11] and in assay [12] was > 100 µM (inactive) in each case. Also, the GI50 in [14] and in assay [15] was > 100 µM (inactive) each time.
For `CSc1ncnc2c1ncn2CCC#N`, the GI50 in assay [1], in [2], in [16], in assay [4], in assay [5] and in [6] was > 100 µM (inactive) in each case. The GI50 in [7], in [8], in assay [9], in assay [10], in assay [11] and in [12] was > 100 µM (inactive) throughout. In addition, the GI50 in assay [13] and in [14] was > 100 µM (inactive) in each case.
As for `O=C1C=C(Sc2ccccc2)c2nccc3c2c1nc1ccccc13`, the GI50 is 17.8 µM (inactive) in assay [1]; 3.35 µM (inactive) in assay [2]; 15.5 µM (inactive) in assay [3]; 5.92 µM (inactive) in assay [4]; 15.1 µM (inactive) in assay [5]; 33.3 µM (inactive) in assay [6]. Also, the GI50 was 16.1 µM (inactive) in [7]; 14 µM (inactive) in assay [8]; 19.3 µM (inactive) in assay [9]; 20 µM (inactive) in [10]; 80 µM (inactive) in assay [11]; 12.2 µM (inactive) in [12]. For the same molecule, the GI50 in assay [13] was 4.27 µM (inactive); in assay [15], 17.5 µM (inactive).
For the molecule `CCC(C)[C@@H]1NC(=O)[C@@H]2CCCN2C(=O)C(CC(O)CCl)OC(=O)CCNC(=O)[C@H](C)N(C)C(=O)[C@H](C(C)C)N(C)C1=O` (some centres not stated) (cyclo([Ile(3ξ)][NMeV][NMeA][βAla][Pentanoyl(2-O,4-OH,5-Cl)]P)), the GI50 in assay [1] was > 100 µM (inactive); in assay [2] it was 17.9 µM (inactive); in [16] it was > 100 µM (inactive); in assay [3], 0.923 µM (active); in [4] it was 0.361 µM (active); in [5], 13.9 µM (inactive). In addition, the GI50 in assay [6] is 2.92 µM (inactive); in [7] it was > 36.2 µM (inactive); in assay [8], > 68.2 µM (inactive); in assay [10] it was > 47.5 µM (inactive); in [11] it was > 100 µM (inactive); in assay [12] it was 12.3 µM (inactive). Besides, the GI50 in [14] was 0.248 µM (active).
For the molecule `COc1c(-c2ccc3c(c2)OCO3)oc2cc3c(c(OC)c2c1=O)OCO3` [MELITERNATIN], the GI50 was 16 µM (inactive) in assay [1]; 22.4 µM (inactive) in [2]; 28.5 µM (inactive) in [16]; 23.9 µM (inactive) in assay [3]; 16.2 µM (inactive) in assay [5]; 16.3 µM (inactive) in assay [6]. For the same molecule, the GI50 in [7] is 24.2 µM (inactive); in assay [8], 15.4 µM (inactive); in [9], 38.1 µM (inactive); in [10] it was 43 µM (inactive); in assay [11] it was 18.3 µM (inactive); in [12] it was 24.8 µM (inactive). Besides, the GI50 in [13] is > 100 µM (inactive); in [14] it was 18.4 µM (inactive); in assay [15] it was 26.9 µM (inactive).
